Experimental data as given in patent US20040093079A1, “Compositions and methods for the reduction of post-angioplasty stenosis” (priority 2001, published 2004).

Tests used:
[1] = system: vascular HO-1; settings: pharmacologic administration of hemin; cited from earlier work
[2] = target: T1, soluble guanylyl cyclase (sGC) (Homo sapiens, UniProt Q02108+Q02153); settings: cited from earlier work
T1 sequence (Q02153 1-619): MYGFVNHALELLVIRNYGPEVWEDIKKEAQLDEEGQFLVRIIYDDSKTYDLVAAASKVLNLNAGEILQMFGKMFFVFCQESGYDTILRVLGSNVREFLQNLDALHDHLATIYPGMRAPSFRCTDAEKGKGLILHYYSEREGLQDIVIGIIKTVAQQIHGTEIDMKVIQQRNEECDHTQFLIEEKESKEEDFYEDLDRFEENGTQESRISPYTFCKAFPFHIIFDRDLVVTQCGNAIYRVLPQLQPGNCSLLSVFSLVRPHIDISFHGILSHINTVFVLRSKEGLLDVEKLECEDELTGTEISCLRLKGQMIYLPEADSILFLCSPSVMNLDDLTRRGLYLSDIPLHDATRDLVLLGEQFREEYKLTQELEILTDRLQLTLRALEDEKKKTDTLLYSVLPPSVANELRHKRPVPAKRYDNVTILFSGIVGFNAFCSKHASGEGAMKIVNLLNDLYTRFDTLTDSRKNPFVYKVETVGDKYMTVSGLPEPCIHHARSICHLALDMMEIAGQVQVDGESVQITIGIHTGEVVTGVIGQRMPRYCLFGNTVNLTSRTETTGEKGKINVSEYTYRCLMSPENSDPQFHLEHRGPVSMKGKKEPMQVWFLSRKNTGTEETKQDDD
T1 sequence (Q02108 1-690): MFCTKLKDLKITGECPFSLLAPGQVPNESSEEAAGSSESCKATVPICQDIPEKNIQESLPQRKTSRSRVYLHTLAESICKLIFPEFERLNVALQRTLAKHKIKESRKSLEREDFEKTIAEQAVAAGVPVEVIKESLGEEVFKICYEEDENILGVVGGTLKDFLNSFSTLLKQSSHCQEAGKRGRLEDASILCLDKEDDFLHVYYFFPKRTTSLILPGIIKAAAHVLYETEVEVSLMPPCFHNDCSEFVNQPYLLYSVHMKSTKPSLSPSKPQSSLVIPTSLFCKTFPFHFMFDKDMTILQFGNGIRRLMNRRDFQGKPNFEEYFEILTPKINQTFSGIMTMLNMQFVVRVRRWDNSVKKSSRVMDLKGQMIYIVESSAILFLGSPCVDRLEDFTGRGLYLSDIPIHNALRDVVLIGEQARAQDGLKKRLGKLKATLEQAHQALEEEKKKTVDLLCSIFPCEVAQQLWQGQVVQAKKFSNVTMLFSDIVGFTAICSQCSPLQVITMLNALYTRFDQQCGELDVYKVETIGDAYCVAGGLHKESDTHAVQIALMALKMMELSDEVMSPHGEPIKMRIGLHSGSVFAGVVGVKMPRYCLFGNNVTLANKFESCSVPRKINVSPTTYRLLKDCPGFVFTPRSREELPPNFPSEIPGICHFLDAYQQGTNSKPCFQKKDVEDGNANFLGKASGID

[3] = system: balloon injured left carotid artery (neointima formation); assay: Morphometric and histologic analysis of balloon-injured left carotid artery 2 weeks post-injury; assay type: in vivo, rat
Procedure: The established rat carotid artery (CA) provided the model of balloon angioplasty to illustrate the in vivo arterial response to injury. Male Sprague Dawley rats (Harlan, Indianapolis, Ind.) weighing an average 497 g were anesthetized with a combination anesthetic (ketamine, zylazine, and acepromazine; 0.5-0.7 ml/kg, IM; VetMed Drugs, Houston, Tex.), and the left CA and external carotid branch exposed.
A Fogarty 2F embolectomy catheter (Baxter Healthcare Corp., Irvine, Calif.) was introduced into the external carotid branch through an arteriotomy incision and advanced to the aortic arch. The balloon was inflated and withdrawn three times with rotation. The catheter was removed and the external carotid ligated. The overlying tissue was sutured and the skin closed with rodent wound clips.
In one embodiment, the entire length of the left CA was balloon injured, immediately followed by perivascular application of YC-1 (1 mg) on the distal section. Sites where tissues were taken for “distal+YC-1” and “proximal−YC-1” are indicated. The right CA served as an uninjured control. EC=external carotid branch; IC=internal carotid branch.
Immediately following balloon injury, at least about 200 μl of a 25% solution of a copolymer gel (Pluronic F-127; BASF Corporation, Mount Olive, N.J.) plus YC-1 (at least about 1 mg in 50 μl DMSO; Calbiochem, La Jolla, Calif.) was administered topically to the exposed adventitia of the distal CA section. […] In all experiments, the entire length of the left CA was injured (avg. 22 mm), while the contralateral right CA served as an unmanipulated untreated control. Only the distal half of the injured left CA was exposed during the surgery, and this section (approximately 11 mm) was treated with YC-1 (or empty gel) while the proximal half remained untreated. A cohort of animals that was balloon-injured and not exposed to any gel or other treatment served as a separate control group.
Acute studies illustrating enzyme and cGMP induction used freshly obtained tissues that were removed from the sacrificed animal and immediately snap-frozen. In one embodiment, two week studies were performed and morphologic remodeling of the vessel wall was monitored in tissue from animals that were perfusion-fixed transcardially using warmed PBS followed by 10% buffered formalin phosphate. Tissues were fixed, processed by standard procedures, and paraffin-embedded, procedures that are well-known to those of ordinary skill in the art of histology. Five micron sections were cut using a rotary microtome and placed on pre-treated slides. For Verhoff's elastic tissue staining, slides were deparaffinized and stained with Verhoff's solution of alcoholic hematoxylin, ferric chloride, and potassium iodine. Slides differentiated with ferric chloride and counterstained with Van Gieson's solution containing 1% acid fuchsin and picric acid.
Microscopic quantitation of vessel dimensions was performed using Zeiss Image 3.0 (Media Cybernetics) and Adobe Photoshop 4.0™ (Adobe Systems) software systems linked through a CCD color camera (Leaf Microlumina, Leaf Systems, USA) to a Zeiss Axioskop 50 light microscope (Carl Zeiss, Germany). Images were measured for perimeters and areas corresponding to internal and external elastic laminae and lumen. Numerical transformations provided data for neointimal and medial wall areas and vessel diameters.
FIG. 6 depicts representative morphometric analyses for (a) neointimal cross-sectional area, (b) neointimal area/medial wall area ratio, (c) neointimal thickness and (d) medial wall area [(a), (b) and (c) statistically significant with p<0.001; (d) statistically significant with p<0.05]. Data for balloon injured left CA distal sections exposed to YC-1 (“distal+YC-1”) and for balloon injured left CA proximal sections not exposed to YC-1 (“proximal−YC-1”) are shown. Values represent mean±SE. For all parameters n=6 animals in the control group and n=9 animals in the YC-1 treated group.

[4] = system: vessel wall cGMP (sGC/cGMP system) in left carotid artery; assay: Cyclic GMP levels by RIA in balloon injured left carotid artery sections after perivascular YC-1; assay type: in vivo, rat
Procedure: Cyclic GMP levels were measured in vessel samples with a competitive RIA using ^125I-labeled cGMP, following instructions from the manufacturer (Amersham Pharmacia Biotech, Piscataway, N.J.). […]

Molecule: hemin
- vascular HO-1 expression [1]: upregulated vascular HO-1

Molecule: [C-]#[O+] [CO, carbon monoxide]
- activation of the purified enzyme (sGC) [2]: 4- to 6 fold

Molecule: OCc1ccc(-c2nn(Cc3ccccc3)c3ccccc23)o1 [YC-1, 3-(5′-hydroxymethyl-2′-furyl)-1-benzyl indazole]
- stimulation of CO-induced sGC (specific activity) [2]: approximately 400 fold
- histology of elastin-stained cross-section: adventitia and collagen staining ([3]; FIG. 5 panel (B), distal section treated with 1 mg YC-1, 2 weeks post-injury): decreased adventitia and reduced collagen staining
- lengths of internal elastic laminae and external elastic laminae ([3]; between and among all treatment groups, 2 weeks post-injury): No differences were detected
- neointimal cross-sectional area, attenuation ([3]; distal YC-1 (1 mg) sections vs proximal unexposed sections of same vessel, 2 weeks post-injury, p<0.001, n=9): −74%
- neointimal thickness, attenuation ([3]; distal YC-1 (1 mg) sections vs proximal unexposed sections, 2 weeks post-injury, p<0.001, n=9): -76%
- medial wall cross-sectional area, diminution ([3]; distal YC-1 (1 mg) sections vs proximal unexposed sections, 2 weeks post-injury, p<0.05, n=9): −12%
- neointimal area/medial wall area ratio, attenuation ([3]; distal YC-1 (1 mg) sections vs proximal unexposed sections, 2 weeks post-injury, p=0.001, n=9): −72%
- YC-1 induced alterations in cGMP ([4]; CA sections from a separate group of uninjured rats (data not shown)): do not show YC-1 induced alterations in cGMP
- cGMP content ([4]; injured CA distal sections exposed to YC-1 (1 mg in gel), 24 hours post-injury, mean±SE, n=5, proximal unexposed sections 0.64±0.11, p=0.012): 1.23±0.13

Molecule: [N]=O [NO, nitric oxide]
- activation of the purified enzyme (sGC) [2]: 400 fold
